In patent US20160297828A1, “SPIROCYCLIC COMPOUNDS CONTAINING SPIRO[INDOLYL-3,1'-PYRROLO[3,4-C]PYRROLE] CORE AND SULPHUR-CONTAINING AMINO ACID RESIDUES” (priority 2013, published 2016):
Where “and” joins values, the source holds several entries; their conditions need not be identical. Equal entries are not always repeated. Marks after values point to notes of the source that are not given here.

How the values were obtained:
[1] = system: ischemic brain damage in rats; settings: 60 mg/kg and 30 mg/kg, 3 and 7 hours after reperfusion; cited from earlier work
[2] = system: liver and pancrea cells; experiment: Pro/antiapoptosis properties, electrophoresis of DNA fragments; type: in vivo; settings: intact male Wistar rats; 50 mg/kg
Protocol: The assessment of pro/antiapoptotosis properties of substances was carried in intact male rats of Wistar line. The test substance were administered for 2 weeks by means of a probe in aqueous suspension containing Tween-80 at a dose of 50 mg/kg of body weight. The animals were euthanized by cervical vertebrae translocation 24 hours after the experiment. The identification of apoptosis of liver and pancrea cells was performed using electrophoretic method. […] Cell necrosis conditioned the “smeared” nature of DNA migration zone. The luminescence band of intact DNA was in the starting area.
The expression of apoptosis manifestations was assessed by registration of DNA fragments via electrophoresis.

[3] = system: rats; experiment: Acute normobaric hypoxic hypoxia with hypercapnia (ANHHH), life duration; type: in vivo; settings: preventive administration; SI-86 and SI-108 10 mg/kg iv, mexydol 100 mg/kg ip
Protocol: The study of antihypoxic activity of 10 original derivatives of 3,2′-spiro-pyrrolo-2-oxindole was conducted on models of acute normobaric hypoxic hypoxia with hypercapnia (ANHHH) and acute asphyxia. ANHHH was modeled by means of rat arrangement into isolated pressure compartments (0.001 m^3). The observation conducted until the death of the animals. The antihypoxic activity was assessed by life duration (in minutes) in relation to the control taken as 100%, by the formula AA=tt/tk×100%, wherein AA—antihypoxic activity (%), tt—life duration of test animals, tc—life duration of control animals.
(§1) The preliminary screening of test substances was performed on ANHHH model. All derivatives were administered in the same dose of 10 mg/kg […] (iv) 1 hour prior to pathological state modeling. […] The effectiveness of a leader compound was evaluated at doses 5; 10 and 15 mg/kg iv. Mexydol was chosen as a reference drug having antihypoxic action in combination with antioxidant and membrane protective activity, which is successfully used in patients with CVA and IM. Mexydol was administered intraperitoneally (ip) at a dose of 100 mg/kg according to similar scheme.

[4] = system: rat heart bioelectrical activity; experiment: Acute asphyxia, duration of heart bioelectrical activity; type: in vivo, rats
Protocol: Acute asphyxia was modeled in rats anesthetized with propofol (60 mg/kg) intraperitoneally (ip) by complete clamping the trachea at electrocardiogram (EGC) registration. The antihypoxic effect was evaluated by duration of heart bioelectric activity (HBA). This model allows to estimate the heart sensitivity to hypoxia. An isoelectric ECG line for 1 minute considered as HBA termination, the pint of HBA termination corresponded to the last QRS complex on the ECG. The calculation of […] activity was performed by the above formula considering a point of last QRS complex registration as a lifetime.
as §1

[5] = system: rats with intracerebral hemorrhage; experiment: Lethality of rats with intracerebral hemorrhage of average severity; type: in vivo
Protocol: The chosen model allows to reproduce clinical pattern of […] and is adequate for clinical study of potential neuroprotective agents.
As comparators the following drugs were used: mexydol (“Mexydol” UC Pharmasoft, Russia), 100 mg/kg; citicoline (“Somazina” Ferrer International, SA, Spain), 250 mg/kg; aktovegin (“Aktovegin”, Nycomed, Austria), 16 mg/kg pyracetam (“Pyracetam” Darnitsa, Ukraine), 400 mg/kg. According to the latest clinical guidelines regarding the treatment of patients with CVA approved by the Ministry of Health of Ukraine (Order No. 602 dated 3 Aug. 2012), all these drugs are allowed to be included into schemes for intensive patients therapy with CVA as neuroprotective agents. They were used at recommended doses for preclinical studies (McGrow C. P. Experimental Cerebral Infarction Effects of Pentobarbital in Mongolian Gerbils/C. P. McGrow//Arch. Neurol.-1977.-Vol. 34, No. 6.-P. 334-336). Experimental therapy of acute cerebral ischemia with SI-86 compound and comparator started 1 hour after IUD once a day for 21 days. […] Reference drugs were injected intraperitoneally (ip). Rats of control pathology group were injected by autoblood and as therapy 0.9% NaCI solution was administered calculated for 2 ml/kg iv.
Pseudo-operated rats were exposed to all interventions (anesthesia, craniotomy) excluding autoblood administration that leveled traumatic impact of experimental conditions.
(§2) Evaluation of the ability of animals to learn and memorize of aversive stimulus was examined in the test of conditioned response of passive avoidance (CRPA). The technique is based on innate rat instinct to limited shadowy space. The study in rats was conducted in two-compartment unit consisted of two sections—light and dark. An animal was arranged into light compartment, fixing latency time for entering into the dark compartment, wherein rat received current irritation and ran in the light compartment. CRPA retention was tested every other day under latency time change of rat entering into the dark compartment. Also the number of animals was noted not fully entered the dark chamber. Cerebroprotective efficiency criteria of studied compounds were also animal death term (days) and their mortality rate (in %).
Quantitative data were processed using statistical StatPlus 2009 processing. The statistical significance of differences was assessed by Fisher's angular transformation (lethality outcome), also parametric t Student criterion were used in case of normal distribution of variation series, nonparametric W White criterion—in its absence.

[6] = system: rats with intracerebral hemorrhage; experiment: Neurological deficit (C. P. McGrow stroke-index scale) in rats with intracerebral hemorrhage; type: in vivo; settings: n = 15
Protocol: (§3) Neuroprotective effect of 3,2′-spiro-pyrrolo-2-oxindole derivative (SI-86 compound) was studied on IUD model of moderate severity modeled under propofol anesthesia (60 mg/kg intraperitoneally (ip)) by autoblood administration into the brain internal capsule (stereotactic coordinates of the projection: H=7.0 mm, L=3.0 mm, A=1.5 mm from bregma) ([…]) (Method for reproduction of intracerebral hemorrhage in rats/O. K. Yarosh, S. V. Kyrychenko, S. P. Halimonchyk [et al.]//Circulation and hemostasis.-2005.-No. 1.-P. 77-81). The chosen model allows to reproduce clinical pattern of […] and is adequate for clinical study of potential neuroprotective agents.
(§4) As comparators the following drugs were used: mexydol (“Mexydol” UC Pharmasoft, Russia), 100 mg/kg; citicoline (“Somazina” Ferrer International, SA, Spain), 250 mg/kg; aktovegin (“Aktovegin”, Nycomed, Austria), 16 mg/kg pyracetam (“Pyracetam” Darnitsa, Ukraine), 400 mg/kg. According to the latest clinical guidelines regarding the treatment of patients with CVA approved by the Ministry of Health of Ukraine (Order No. 602 dated 3 Aug. 2012), all these drugs are allowed to be included into schemes for intensive patients therapy with CVA as neuroprotective agents. They were used at recommended doses for preclinical studies (McGrow C. P. Experimental Cerebral Infarction Effects of Pentobarbital in Mongolian Gerbils/C. P. McGrow//Arch. Neurol.-1977.-Vol. 34, No. 6.-P. 334-336). Experimental therapy of acute cerebral ischemia with SI-86 compound and comparator started 1 hour after IUD once a day for 21 days. The SI-86 derivative was investigated in conventionally effective dose of 10 mg/kg […] (iv)-dose that according to the results of our previous study provides maximum antihypoxic activity of SI-86 compound. Reference drugs were injected intraperitoneally (ip). Rats of control pathology group were injected by autoblood and as therapy 0.9% NaCI solution was administered calculated for 2 ml/kg […].
Neurological deficit in animals with acute CVA respectively in acute (4th day) and recovery (21 st day) periods was measured on C. P. McGrow stroke-index scale. The state severity was determined by amount of relevant points: to 3 points-mild, 3 to 7 points-average, above 7 points-severe degree. Pareses, paralyses of limbs, tremors, circus movement, ptoses, lateral positions, ability of rats to be maintained at the core of 15 cm diameter, rotating at the rate of 3 rpm were noted. The animals were tested daily by displaying the amount of points:
one-sided semi-ptosis—0.5 points; one-sided ptosis—1 point; tremor—0.5 points; circus movements—0.5 points; pareses of limbs (for each limb)—1 point; paralyses of limbs (for each limb)—2 points; lateral position—3 points; disability to maintain on rotating rod during 4 minutes—3 points.

[7] = system: rats with intracerebral hemorrhage; experiment: Conditioned response of passive avoidance (CRPA) in rats with intracerebral hemorrhage; type: in vivo; settings: 21st day, n = 15
Protocol: as §3, §4, §2

[8] = 12 h, SI-86 10 mg/kg iv, mexydol 100, citocoline 250, actovegin 16, pyracetam 400 mg/kg

Cc1c(Cl)cccc1S(=O)(=O)Nc1nc(CC(=O)N2CCN(C)CC2)cs1.Cl [BVT-2733, 3-chloro-2-methyl-N-(4-(2-(4-methylpiperazin-1-yl)-2-oxoethyl)thiazol-2-yl)benzenesulfonamide hydrochloride]
amount of ischemic brain damage [1]: reduced the amount of ischemic brain damage

CCSCC[C@@H]1N[C@@]2(C(=O)Nc3ccccc32)[C@@H]2C(=O)N(c3ccc(C)cc3)C(=O)[C@H]12 [SI-34, 5′-(4-Methylphenyl)-3′-[2-(ethylthio)ethyl]-3a′,6a′-dihydro-2′H-spiro[indole-3, 1′-pyrrolo[3,4-c]pyrrol]-2,4′,6′(1H,3H′,5H′)-trione]
level of apoptosis [2]: closed to that of control group

CCSCC[C@@H]1N[C@@]2(C(=O)N(Cc3ccc(Cl)cc3)c3ccccc32)[C@@H]2C(=O)N(c3ccc(C)cc3)C(=O)[C@H]12 [SI-108, 1-(4-Chloro-benzyl)-3′-[2-(ethylthio)ethyl]-5′-(4-methylphenyl)-3a′,6a′-dihydro-2′H-spiro[indole-3,1′-pyrrolo[3,4-c]pyrrol]-2,4′,6′(1H,3′H,5′H)-trione]
increase of life duration in rats in relation to control [3]: 28.6%
Antihypoxic activity ([4]; 10 mg/kg iv): −18.4%
Duration of heart bioelectrical activity ([4]; 10 mg/kg iv): 9.5 ± 1.1 min

CCc1nc(C)ccc1O.O=C(O)CCC(=O)O [mexydol]
Lethality, % [5, 8]: 0/0%*^#
Lethality, abs. [5, 8]: 0/0%*^#
Lethality, abs. ([5]; 24 h, same doses): 0/0%*^#
cerebroprotective protection ([5]; 24 h observation, SI-86 10, mexydol 100, citicoline 250 mg/kg): 100%
Lethality, % ([5]; 48 h, same doses): 7.9%
Lethality, abs. ([5]; 48 h, same doses): 3
Lethality, % ([5]; 72 h, same doses): 10.5%
Lethality, abs. ([5]; 72 h, same doses): 4
Lethality, % ([5]; 96 h, same doses): 13.2%
Lethality, abs. ([5]; 96 h, same doses): 5
reduction of mortality in rats at the end of the observation period relative to control ([5]; within 4 days of therapy, same doses): 17.2%
neurological deficit, average point under C. P. McGrow scale ([6]; day 4, SI-86 10 mg/kg iv, mexydol 100, citocoline 250, actovegin 16, pyracetam 400 mg/kg ip): 4.30 ± 0.25°*^#•$ points
neurological deficit, average point under C. P. McGrow scale ([6]; day 21, same doses): 3.8 points and 3.80 ± 0.21°*^#•$ points
increase of life duration in rats in relation to control [3]: 80.2%
Latent period for entrance into dark compartment, prior study ([7]; SI-86 10 mg/kg iv, mexydol 100, citocoline 250, actovegin 16, pyracetam 400 mg/kg ip): 11.30 ± 0.47°*^#$ s
Latent period for entrance into dark compartment, 24 hours after study ([7]; same doses): 106.80 ± 2.77°*^#•$ s
Antihypoxic activity ([4]; 100 mg/kg ip): +50.9%
Duration of heart bioelectrical activity ([4]; 100 mg/kg ip): 17.5 ± 0.5 min
